Measured values: the NIST ThermoML archive (doi:10.1021/acs.jced.5b00197)

Assay: refractive index (other wavelength) (dimensionless); xn = mol fraction of the nth substance listed
Details: 94.64 kPa, Liquid, Standard Abbe refractometry

CC(=O)O [acetic acid] + O
refractive index
Details	Wavelength=404.7 nm	Wavelength=435.8 nm	Wavelength=486.1 nm	Wavelength=546.1 nm	Wavelength=587.6 nm	Wavelength=632.8 nm	Wavelength=644 nm	Wavelength=706.5 nm
293.15 K, x1 = 0.0322	1.35074	1.34808	1.34498	1.34229	1.34084	1.3395	1.33919	1.33766
293.15 K, x1 = 0.0697	1.35808	1.35532	1.35218	1.3494	1.34797	1.34664	1.34631	1.34473
293.15 K, x1 = 0.114	1.36535	1.36252	1.35924	1.35643	1.35495	1.35355	1.35322	1.35158
293.15 K, x1 = 0.167	1.37162	1.36869	1.36533	1.36247	1.36095	1.35953	1.35919	1.35756
293.15 K, x1 = 0.231	1.37678	1.3738	1.37034	1.36744	1.36589	1.36444	1.36411	1.36247
293.15 K, x1 = 0.31	1.38181	1.37874	1.37522	1.37227	1.37068	1.36921	1.36888	1.36724
293.15 K, x1 = 0.412	1.38536	1.38226	1.37869	1.37571	1.37412	1.37264	1.3723	1.37065
293.15 K, x1 = 0.545	1.38847	1.3853	1.38169	1.37868	1.37709	1.37561	1.37526	1.37359
293.15 K, x1 = 0.629	1.38867	1.3855	1.38192	1.37889	1.3773	1.37583	1.37548	1.37381
293.15 K, x1 = 0.729	1.38865	1.38547	1.38189	1.37886	1.37727	1.37581	1.37547	1.37382
293.15 K, x1 = 0.85	1.38695	1.38381	1.38021	1.37723	1.37565	1.37419	1.37386	1.37224
293.15 K, x1 = 1	1.38345	1.38034	1.37681	1.37386	1.3723	1.37087	1.37055	1.36896
298.15 K, x1 = 0.0322	1.34997	1.34733	1.34424	1.34156	1.34012	1.33879	1.33848	1.33695
298.15 K, x1 = 0.0697	1.35708	1.35435	1.35121	1.34845	1.347	1.34567	1.34535	1.34377
298.15 K, x1 = 0.114	1.36413	1.36131	1.35805	1.35525	1.35378	1.35239	1.35206	1.35044
298.15 K, x1 = 0.167	1.37026	1.36733	1.36401	1.36114	1.35963	1.35823	1.3579	1.35625
298.15 K, x1 = 0.231	1.37523	1.37226	1.36885	1.36595	1.36441	1.36298	1.36265	1.36102
298.15 K, x1 = 0.31	1.38012	1.37707	1.37358	1.37063	1.36906	1.36762	1.36728	1.36564
298.15 K, x1 = 0.412	1.38357	1.38048	1.37695	1.37398	1.37239	1.37092	1.37059	1.36894
298.15 K, x1 = 0.545	1.38656	1.38342	1.37983	1.37683	1.37525	1.37378	1.37344	1.37178
298.15 K, x1 = 0.629	1.38681	1.38367	1.38008	1.37709	1.37551	1.37404	1.3737	1.37205
298.15 K, x1 = 0.729	1.38668	1.38352	1.37994	1.37695	1.37536	1.3739	1.37357	1.37193
298.15 K, x1 = 0.85	1.38488	1.38174	1.37819	1.37522	1.37365	1.37221	1.37188	1.37027
298.15 K, x1 = 1	1.38126	1.37816	1.37466	1.37174	1.37018	1.36876	1.36844	1.36686
303.15 K, x1 = 0.0322	1.34916	1.34654	1.34343	1.34077	1.33932	1.338	1.3377	1.3362
303.15 K, x1 = 0.0697	1.35605	1.35332	1.35017	1.34743	1.34598	1.34464	1.34432	1.34275
303.15 K, x1 = 0.114	1.36289	1.36008	1.35684	1.35405	1.35256	1.35117	1.35085	1.34926
303.15 K, x1 = 0.167	1.36886	1.36596	1.36261	1.35979	1.35827	1.35686	1.35653	1.35492
303.15 K, x1 = 0.231	1.37369	1.37074	1.36734	1.36446	1.36293	1.36151	1.36118	1.35956
303.15 K, x1 = 0.31	1.37842	1.37539	1.37192	1.36899	1.36742	1.36598	1.36565	1.36402
303.15 K, x1 = 0.412	1.38176	1.37869	1.37516	1.37223	1.37064	1.36917	1.36884	1.36722
303.15 K, x1 = 0.545	1.38463	1.3815	1.37794	1.37497	1.37337	1.3719	1.37157	1.36995
303.15 K, x1 = 0.629	1.38481	1.38167	1.37813	1.37513	1.37355	1.3721	1.37176	1.37013
303.15 K, x1 = 0.729	1.38467	1.38153	1.37797	1.375	1.37341	1.37196	1.37163	1.37002
303.15 K, x1 = 0.85	1.38283	1.37972	1.37618	1.37323	1.37166	1.37023	1.3699	1.36831
303.15 K, x1 = 1	1.37917	1.37611	1.37261	1.36968	1.36815	1.36675	1.36643	1.36485
